From patent US5140039A, “Aminomethyl-thiochroman compounds” (Abbott Laboratories, priority 1991, dated 1992)
Structures can show the parent of a compound that is named as a salt.

What was measured:
alpha-2-receptor = test: radioligand binding, [3H]-rauwolscine, rat cerebral cortices; settings: for Ki: rat cerebral cortices, [3H]-rauwolscine; for alpha-2-Selectivity Ki alpha-1/Ki alpha-2: ratio Ki alpha-1/Ki alpha-2
Description: (§1) The compounds were assessed for alpha-adrenergic receptor subtype selectivity by use of radioligand binding techniques as described previously (DeBernardis et.al. J. Med. Chem. 28 1398 (1985)). Affinity for the alpha-1-receptor was assessed using rat liver homogenates and the radioligand [^3 H]-prazosin; whereas for the alpha-2-receptor, rat cerebral cortices and the radioligand [^3 H]-rauwolscine were utilized. Results obtained from the binding studies are shown in Table 1 for a representative sample of compounds disclosed herein.

alpha-1-receptor = biological target: T1, alpha-1-receptor (Rattus norvegicus, UniProt P15823); test: radioligand binding, [3H]-prazosin, rat liver homogenates
T1 construct: rat liver homogenates; from tissue; host or cells: rat liver homogenate
T1 sequence (P15823 1-515): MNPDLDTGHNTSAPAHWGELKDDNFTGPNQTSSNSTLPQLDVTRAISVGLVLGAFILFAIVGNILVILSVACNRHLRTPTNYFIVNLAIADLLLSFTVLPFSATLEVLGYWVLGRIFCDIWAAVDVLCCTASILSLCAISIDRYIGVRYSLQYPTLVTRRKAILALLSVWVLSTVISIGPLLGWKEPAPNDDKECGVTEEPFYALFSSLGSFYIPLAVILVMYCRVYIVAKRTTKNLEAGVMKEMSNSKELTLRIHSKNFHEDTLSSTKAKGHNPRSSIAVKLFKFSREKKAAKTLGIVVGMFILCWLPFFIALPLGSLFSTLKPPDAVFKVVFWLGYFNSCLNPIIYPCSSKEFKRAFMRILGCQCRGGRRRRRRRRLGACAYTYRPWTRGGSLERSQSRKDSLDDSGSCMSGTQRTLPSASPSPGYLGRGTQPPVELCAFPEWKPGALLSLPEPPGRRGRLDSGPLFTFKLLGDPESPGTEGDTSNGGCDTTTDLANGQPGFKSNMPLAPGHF
Description: as §1

| Ki (alpha-2-receptor) [nM] | alpha-2-Selectivity Ki alpha-1/Ki alpha-2 (alpha-2-receptor) | Ki (alpha-1-receptor) [nM] | Compound |
| --- | --- | --- | --- |
| 34 | 33 | 1140 | CCN(CCc1cccc(Cl)c1)CC1CCOc2cc(OC)ccc21 (stereo not drawn) [Example 6, 4-((N-Ethylamino)methyl-N-(2-(m-chlorophenyl)ethyl))-7-methoxy chroman hydrochloride] |
| 10 | 59 | 590 | COc1ccc2c(c1)OCCC2CN(C)CCc1cccs1 (stereo not drawn) [Example 7, 4-((N-Methylamino)methyl-N-(2-(2-thienyl)ethyl))-7-methoxy chroman hydrochloride] |

The next lines start with the compound.

| Compound | Ki (alpha-2-receptor) [nM] | alpha-2-Selectivity Ki alpha-1/Ki alpha-2 (alpha-2-receptor) | Ki (alpha-1-receptor) [nM] |
| --- | --- | --- | --- |
| COc1ccc2c(c1)OCCC2CN(C)CCc1cccc(Cl)c1 (stereo not drawn) [Example 4, 4-((N-Methylamino)methyl-N-(2-(m-chlorophenyl)ethyl))-7-methoxy chroman hydrochloride] | 24 | 11 | 260 |
| COc1ccc2c(c1OC)SCCC2CN(C)CCc1cccs1 (stereo not drawn) [Example 13, 4-((N-Methylamino)methyl-N-(2-(2-thienyl)ethyl))-7,8-dimethoxy thiochroman hydrochloride] | 3 | 32 | 96 |
| COc1ccc2c(c1OC)OCCC2CN(C)CCc1cccc(F)c1 (stereo not drawn) [Example 25, 4-(N-Methylamino)methyl-N-(2-(m-fluorophenyl)ethyl))-7,8-dimethoxy chroman hydrochloride] | 3 | 183 | 550 |
| COc1ccc2c(c1OC)OCCC2CN(C)CCc1cccs1 (stereo not drawn) [Example 26, 4-((N-Methylamino)methyl-N-(2-(2-thienyl)ethyl))-7,8-dimethoxy chroman hydrochloride] | 5.8 | 1724 | 10000 |
| CCN(CCc1cccs1)CC1CCOc2c1ccc(OC)c2C (stereo not drawn) [Example 28, 4-((N-Ethylamino)methyl-N-(20(2-thienyl)ethyl)-7-methoxy-8-methylchroman hydrochloride] | 34 | 29 | 1000 |
